The compounds below were run against T1, soluble epoxide hydrolase (sEH) (Homo sapiens, UniProt P34913) (assay: in vitro biochemical activity test, sEH enzyme inhibition with EET substrate (LC-MS)). Conditions: 90 min pre-incubation at room temperature, 60 min reaction.
T1 sequence (P34913 1-555): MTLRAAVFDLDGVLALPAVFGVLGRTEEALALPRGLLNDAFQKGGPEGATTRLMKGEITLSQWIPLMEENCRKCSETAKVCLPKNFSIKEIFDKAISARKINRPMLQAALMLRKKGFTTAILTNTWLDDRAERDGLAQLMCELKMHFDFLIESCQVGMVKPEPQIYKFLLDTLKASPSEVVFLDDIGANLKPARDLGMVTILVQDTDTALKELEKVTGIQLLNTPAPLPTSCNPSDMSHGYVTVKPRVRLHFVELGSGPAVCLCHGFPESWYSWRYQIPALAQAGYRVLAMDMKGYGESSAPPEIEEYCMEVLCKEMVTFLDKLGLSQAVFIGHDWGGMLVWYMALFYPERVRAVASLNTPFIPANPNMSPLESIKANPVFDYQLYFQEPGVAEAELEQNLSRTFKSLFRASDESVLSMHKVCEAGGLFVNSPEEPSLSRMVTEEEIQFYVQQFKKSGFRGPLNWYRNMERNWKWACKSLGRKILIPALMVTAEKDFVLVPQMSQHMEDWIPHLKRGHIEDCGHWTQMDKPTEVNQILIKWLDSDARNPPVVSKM
Experimental: This example relates to the relationship between the structure and activity of (hetero)aryl imidazole compounds containing an aromatic substituent. Specifically, the biochemical activity of the (hetero)aryl imidazole compounds containing an aromatic substituent described in Example 1 as sEH enzyme inhibitors was evaluated by in vitro activity test experiments.
The experimental procedures for evaluating in vitro biochemical activity were described below.
The substrate used in the evaluation experiment was epoxyeicosatrienoic acid (EET). The solutions used in the evaluation experiments were Bis/Tris HCl 25 mM pH 7.0, Bis/Tris HCl 25 mM pH 7.0 containing 0.1 mg/mL BSA was used as buffer A, and Bis/Tris HCl 25 mM pH 7.0 containing 36.3 mM ZnSO4 was used as buffer B.
The specific steps of the evaluation experiment were as follows. 79 μL of buffer A was added to each well in a black 96-well plate and then 1 μL solution of the aromatic substituent-containing (hetero)aryl imidazole compound was added. Then, 10 μL sEH (1 μM) buffer A solution was added to the wells. After pre-incubation at room temperature for 90 min, 10 μL EET (10 μM) buffer A solution was added to trigger the reaction. After the mixture was allowed to react […] for 60 min, 15 μL buffer B and 180 μL acetonitrile were added to quench the reaction, followed by high-speed centrifugation and filtration for later use.
LC-MS was used to detect the concentration of EET in the samples. The final IC50 was calculated based on three independent experiments using Graphpad Prism software.

Row | IC50 [nM] | Compound
1 | 0.45 | Nc1ncc(-c2cc3[nH]c(-c4cccc(C(F)(F)F)c4)nc3c(F)c2F)c(C(F)F)n1 [Compound 80, 5-(2-(3-(trifluoromethyl)phen-yl)-4,5-difluoro-1H-benzo[d]imidazol-6-yl)-4-(difluoro-methyl)pyrimidine-2-amine]

These compounds were tested against T1, soluble epoxide hydrolase (sEH) (assay: PHOME assay activity test, sEH enzyme inhibition (fluorescence)). Conditions: PHOME 5 μM, pH 7.0; 10 min pre-incubation; test compound concentration range 20 nM-0.082 nM.
Format: biochemical
Experimental: This example relates to the relationship between the structure and activity of (hetero)aryl imidazole compounds containing an aromatic substituent. Specifically, the biochemical activity of the (hetero)aryl imidazole compounds containing an aromatic substituent described herein as sEH enzyme inhibitors was evaluated by PHOME assay activity test experiment. The synthesis of the substrates and the test methods required for this test were all based on known literature reports (Analytical Biochemistry 2005, 343, 66-75).
The sEH enzyme activity inhibition experiment was performed in a low binding 96-well plate. The reaction system was 100 μL 25 mM Bis-Tris, pH 7.0, 0.1 mg/mL BSA buffer. The experimental steps of PHOME assay activity test were as follows.
First, a sEH enzyme solution with a final concentration of […] was mixed with compounds of different concentrations (test compound concentration range 20 nM-0.082 nM), and then pre-incubated on a shaker at room temperature for 10 min. The reaction was triggered by adding Phome fluorescent substrate at a final concentration of 5 μM and immediately placed in a Perkin Elmer microplate reader for dynamic monitoring for 1 hour at an excitation wavelength of 330 nm and an emission wavelength of 465 nm, with fluorescence readings at intervals of 1 minute. Graphpad Prism 9.0 software was used to calculate the slope of the fluorescence value increase in each well within 20 minutes, and the slope was used to calibrate the enzyme activity to calculate the inhibition rate of the compound on sEH enzyme activity under different concentration conditions. Finally, Graphpad Prism 9 was used to plot and calculate IC50 values.
The inhibitory activity IC50 values of some compounds against soluble epoxide hydrolase obtained by PHOME assay activity evaluation experiment are shown in Table 4.

Row | IC50 [nM] | Compound
2 | 0.65 | Nc1ncc(-c2cc3[nH]c(-c4cccc(C(F)(F)F)c4)nc3c(F)c2F)c(C(F)F)n1 [Compound 80, 5-(2-(3-(trifluoromethyl)phen-yl)-4,5-difluoro-1H-benzo[d]imidazol-6-yl)-4-(difluoro-methyl)pyrimidine-2-amine]
3 | 0.65 | COCCNc1ncc(-c2cc3[nH]c(-c4ccc(C(F)(F)F)cc4)nc3c(F)c2F)c(C(F)F)n1 [Compound 88, 5-(2-(4-(trifluoromethyl)phen-yl)-4,5-difluoro-1H-benzo[d]imidazol-6-yl)-4-(difluoro-methyl)-N-(2-methoxyethyl)-pyrimidine-2-amine]
4 | 0.35 | Nc1ncc(-c2cc3[nH]c(-c4ccc5c(c4)OC(F)(F)O5)nc3c(F)c2F)c(C(F)F)n1 [Compound 89, 5-(2-(2,2-difluorobenzo[d][1,3]dioxol-5-yl)-4,5-difluoro-1H-benzo[d]imidazol-6-yl)-4-(difluoromethyl)pyrimidine-2-amine]
5 | 0.48 | Nc1ncc(-c2cc3[nH]c(-c4ccc(OC(F)(F)F)c(F)c4)nc3c(F)c2F)c(C(F)F)n1 [Compound 90, 5-difluoro-1H-benzo[d]5-(2-(4-(trifluoromethoxy)-3-fluoro-phenyl)-4,5-difluoro-1H-benzo [d]imidazol-6-yl)-4-(difluoro-methyl)pyrimidine-2-amine]
6 | 0.61 | Fc1c(-c2cnc(NC3COC3)nc2C(F)F)cc2[nH]c(-c3ccc(C(F)(F)F)cc3)nc2c1F [Compound 91, 5-(2-(4-(trifluoromethyl)phen-yl)-4,5-difluoro-1H-benzo[d]imidazol-6-yl)-4-(difluoro-methyl)-N-(oxetan-3-yl)pyr-imidine-2-amine]
7 | < 0.082 | CN(C)c1nc(N)ncc1-c1cc2[nH]c(-c3ccc(C(F)(F)F)cc3)nc2c(F)c1F [Compound 92, 5-(2-(4-(trifluoromethyl)phen-yl)-4,5-difluoro-1H-benzo[d]imidazol-6-yl)-N4,N4-dimeth-ylpyrimidine-2,4-diamine]
8 | < 0.082 | Cc1nc(N2CC(O)C2)ncc1-c1cc2[nH]c(-c3ccc(C(F)(F)F)cc3)nc2c(F)c1F [Compound 93, 1-(4-methyl-5-(2-(4-(trifluoro-methyl)phenyl)-4,5-difluoro-1H-benzo[d]imidazol-6-yl)-pyrimidine-2-yl)azetidin-3-ol]
9 | 2.54 | Nc1ncc(-c2cc3[nH]c(-c4ccc(F)c(OC(F)(F)F)c4)nc3c(F)c2F)c(C(F)F)n1 [Compound 94, 5-(2-(3-(trifluoromethoxy)-4-fluorophenyl)-4,5-difluoro-1H-benzo[d]imidazol-6-yl)-4-(difluoromethyl)pyrimidine-2-amine]
10 | < 0.082 | N#Cc1nc(N)ncc1-c1cc2[nH]c(-c3ccc(C(F)(F)F)cc3)nc2c(F)c1F [Compound 95, 2-amino-5-(2-(4-(trifluoro-methyl)phenyl)-4,5-difluoro-1H-benzo[d]imidazol-6-yl)-pyrimidine-4-carbonitrile]
11 | 0.14 | Cc1nc(N2CC(C(=O)O)C2)ncc1-c1cc2[nH]c(-c3ccc(C(F)(F)F)cc3)nc2c(F)c1F [Compound 96, 1-(4-methyl-5-(2-(4-(trifluoro-methyl)phenyl)-4,5-difluoro-1H-benzo[d]imidazol-6-yl)-pyrimidine-2-yl)azetidine-3-carboxylic acid]
12 | 0.092 | Cc1nc(CN2CCOCC2)ncc1-c1cc2[nH]c(-c3ccc(C(F)(F)F)cc3)nc2c(F)c1F [Compound 97, 4-((4-methyl-5-(2-(4-(trifluoro-methyl)phenyl)-4,5-difluoro-1H-benzo[d]imidazol-6-yl)-pyrimidine-2-yl)methyl)mor-pholine]
13 | 0.11 | CC(=O)N1CCN(Cc2ncc(-c3cc4[nH]c(-c5ccc(C(F)(F)F)cc5)nc4c(F)c3F)c(C)n2)CC1 [Compound 98, 1-(4-((4-methyl-5-(2-(4-(trifluoromethyl)phenyl)-4,5-difluoro-1H-benzo[d]imid-azol-6-yl)pyrimidine-2-yl)-methyl)piperazin-1-yl)ethan-1-one]
14 | 41.6 | Nc1ncc(-c2cc3[nH]c(-c4ccc(C(F)(F)F)cc4)nc3c(F)c2F)c(C(=O)O)n1 [Compound 99, 2-amino-5-(2-(4-(trifluoro-methyl)phenyl)-4,5-difluoro-1H-benzo[d]imidazol-6-yl)-pyrimidine-4-carboxylic acid]
15 | 10.1 | Cc1nc(N)ncc1-c1cc2[nH]c(-c3ccc4oc(=O)n(C)c4c3)nc2c(F)c1F [Compound 100, 3-methyl-5-(6-(4-methyl-2-aminopyrimid-5-yl)-4,5-difluoro-1H-benzo[d]imid-azol-2-yl)benzo[d]oxazol-2(3H)-one]
16 | 0.35 | Cc1nc(N)ncc1-c1cc2[nH]c(-c3ccc(C(F)(F)F)cn3)nc2c(F)c1F [Compound 101, 4-methyl-5-(2-(5-(trifluoro-methyl)pyrid-2-yl)-4,5-difluoro-1H-benzo[d]imid-azol-6-yl)pyrimidine-2-amine]
17 | 1.45 | Cc1nc(N)ncc1-c1nc2[nH]c(-c3ccc(C(F)(F)F)cc3)nc2cc1F [Compound 102, 4-methyl-5-(2-(4-(trifluoromethyl)phenyl)-6-fluoro-3H-imidazo[4,5-b]pyridin-5-yl)-pyrimidine-2-amine]
18 | 0.36 | Cc1cc(N)nnc1-c1cc2[nH]c(-c3ccc(C(F)(F)F)cc3)nc2c(F)c1F [Compound 103, 5-methyl-6-(2-(4-(trifluoro-methyl)phenyl)-4,5-difluoro-1H-benzo[d]imidazol-6-yl)-pyridazin-3-amine]
19 | > 20 | Cc1nc(N2CC(O)C2)ncc1-c1cc2[nH]c(-c3ccc(S(=O)(=O)N(C)C)c(F)c3)nc2c(F)c1F [Compound 104, 4-(6-(4-methyl-2-(3-hydroxy-azetidin-1-yl)pyrimid-5-yl)-4,5-difluoro-1H-benzo[d]imidazol-2-yl)-2-fluoro-N,N-dimethylbenzenesulfonamide]
20 | > 20 | Cc1nc(N2CC(C(=O)O)C2)ncc1-c1cc2[nH]c(-c3ccc(S(=O)(=O)N(C)C)c(F)c3)nc2c(F)c1F [Compound 105, 1-(4-methyl-5-(2-(3-fluoro-4-(N,N-dimethylsulfamoyl)phen-yl)-4,5-difluoro-1H-benzo[d]imidazol-6-yl)pyrimidine-2-yl)azetidine-3-carboxylic acid]
